Data published in the supplement of paper PMC9663587.

Legend:
HCC1937 = test: GRmax, 72 h; higher = less effect;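 also: breast cell lines in 384-well plates, nine doses across a 10^4 range, Dye Drop imaging of viable cells vs DMSO and time-zero plates, GR 0 means no net growth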
PDXHCI002 = test: GRmax, 72 h; higher = less effect;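 also: breast cell lines in 384-well plates, nine doses across a 10^4 range, Dye Drop imaging of viable cells vs DMSO and time-zero plates, GR 0 means no net growth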
HS578T = test: GRmax, 72 h; higher = less effect;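 also: breast cell lines in 384-well plates, nine doses across a 10^4 range, Dye Drop imaging of viable cells vs DMSO and time-zero plates, GR 0 means no net growth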
SUM149 = test: GRmax, 72 h; higher = less effect;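 also: breast cell lines in 384-well plates, nine doses across a 10^4 range, Dye Drop imaging of viable cells vs DMSO and time-zero plates, GR 0 means no net growth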
PDX1206 [1] = test: GRmax, 72 h; higher = less effect
AU565 = test: GRmax, 72 h; higher = less effect
EFM19 = test: GRmax, 72 h; higher = less effect
MCF10A (GM) = test: area over the GR curve, 72 h; higher = more effect;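 also: Dye Drop or Deep Dye Drop imaging of viable cells in 384-well plates (Hoechst nuclei, LIVE/DEAD dye), nine half-log doses, GR normalized to DMSO controls and time-zero plates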
PDX1206 [2] = test: area over the GR curve, 72 h; higher = more effect;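 also: Dye Drop or Deep Dye Drop imaging of viable cells in 384-well plates (Hoechst nuclei, LIVE/DEAD dye), nine half-log doses, GR normalized to DMSO controls and time-zero plates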

Structure (SMILES) | GRmax, 72 h (HCC1937) [GR] | GRmax, 72 h (PDXHCI002) [GR] | GRmax, 72 h (HS578T) [GR] | GRmax, 72 h (SUM149) [GR] | GRmax, 72 h (PDX1206 [1]) [GR] | GRmax, 72 h (AU565) [GR] | GRmax, 72 h (EFM19) [GR] | area over the GR curve (MCF10A (GM)) [GR] | area over the GR curve (PDX1206 [2]) [GR]
CC1(N)CCN(c2cnc(-c3cccc(Cl)c3Cl)c(N)n2)CC1 [SHP099] (max 10 µM) | 0.797 | 0.63 | 0.632 | 0.866 | 0.7 | 0.97 | 0.992 | 0.0203 | 0.0699
CN(C)C/C=C/C(=O)Nc1ccc(C(=O)Nc2cccc(Nc3ncc(Cl)c(-c4c[nH]c5ccccc45)n3)c2)cc1 [THZ1] (max 1 µM) | -0.386 | -0.193 | -0.371 | -0.52 | -0.522 | -0.64 | -0.293 | 0.374 | 0.506
CN(C)C/C=C/C(=O)Nc1ccc(C(=O)N2CCC[C@@H](Nc3ncc(Cl)c(-c4c[nH]c5ccccc45)n3)C2)cc1 [THZ531] (max 1 µM) | -0.282 | -0.198 | -0.246 | -0.509 | -0.312 | -0.527 | -0.557 | 0.134 | 0.407
CN(C)C/C=C/C(=O)Nc1ccc(C(=O)Nc2cccc(Nc3cc(-c4c[nH]c5ccccc45)ncn3)c2)cc1 [THZ-P1-2] (max 10 µM) | -0.777 | 0.721 | 0.92 | -0.589 | 0.857 | -0.648 | 0.124 | 0.0927 | -0.0028
C=CC(=O)Nc1ccc(C(=O)Nc2[nH]nc3c2CN(C(=O)N[C@H](CN(C)C)c2ccccc2)C3(C)C)cc1 [YKL-5-124] (max 10 µM) | -0.205 | -0.129 | -0.445 | -0.104 | -0.513 | -0.563 | 0.0431 | 0.982 | 0.57
CN1CCN(C(=O)c2ccc3cc(CCNc4ncnc5ccc(C#N)cc45)ccc3c2)CC1 [senexin b] (max 10 µM) | 0.394 | 1.06 | 0.765 | 0.747 | 0.223 | 0.76 | 0.629 | 0.0206 | 0.37
